Results on two compounds are retold here after patent publication USRE47193E1, “Selectively substituted quinoline compounds” (EISAI R&D MANAGEMENT CO., LTD., priority 2013, dated 2019).

The structures appear in SMILES notation. Values joined by “and” are separate entries in the source; they are usually repeats but may differ in a detail not shown here. Equal values may be shown once. Read-outs that look alike come from different tables or passages of the source.

A word on the IC50: it is the concentration that inhibits the measured activity by half.

In assay [1] the test system is T1, TLR7/8.
T1 construct: other: human PBMC; ligand SL4-Ig; individual donors 1-6; average of donors; ligand RNA40-DOTAP; individual donors; ligand R848; ligand
The assay is described as follows: Subsequent human PBMC assay, various TLR7/8 ligands, IL-6 and IFN-α blockade. Format: cell-based. The protocol: (§1) Human PBMC Cell-Based Assay. Human peripheral blood mononuclear cells (PBMC) were isolated from freshly-drawn heparinized (10 USP units/ml, Hospira, Lakeforest, Ill.) healthy donor whole blood by density gradient (Histopaque® 1077, Sigma, Inc., St. Louis, Mo.). Briefly, 25 ml blood was diluted with 15 ml PBS (without Ca^2+, Mg^2+) in a 50 ml conical tube, and 12 ml Histopaque was underlaid using a spinal needle. Tubes were centrifuged for 45 minutes at 1200 rpm (350×g), and PBMC were collected from the buffy coat. Cells were then washed twice in PBS, and red blood cells were lysed by suspension in 5 ml ammonium chloride solution (1× Red Blood Cell Lysis Buffer, eBioscience) for 5 minutes at room temperature. After a final wash in PBS, PBMC were resuspended at a final concentration of 2×10^6/ml in RPMI-1640 media with L-glutamine (Invitrogen) and supplemented with 25 mM HEPES (Mediatech, Inc, Manassas Va.), 10% fetal bovine serum (HyClone, Logan, Utah), and Penicillin-Streptomycin-Glutamine (Mediatech) and plated at 100 ul/well (2×10^5 cells/well) in tissue culture treated 96-well plates (Falcon).
(§2) Antagonist compounds solubilized and serial diluted in 100% DMSO were added in triplicate to cells to yield a final concentration of 0.1% DMSO (v/v). Hydroxychloroquine (Acros Organics) solubilized and serial diluted in PBS was added in triplicate to cells. PBMC were incubated with antagonist compounds or HCQ for 30 minutes at 37° C., 5% CO2 before adding various TLR agonist reagents in 100 ul complete media per well as follows (final concentrations indicated): R848 (Resiquimod; GLSynthesis, Worcester, Mass.) at 1 uM for TLR7 and TLR8, LPS (Sigma) at 10 ng/ml for TLR4, and CpG-2216 (InvivoGen) at 5 ug/ml for TLR9. To prepare a TLR7/8 agonist that mimics RNA-containing auto-antibody immune complexes in lupus patients, a 26-mer RNA with a sequence derived from human U1 snRNA stem loop IV [(sequence: […]-[…] (SEQ ID NO: 2) with phosphorothioate backbone] was synthesized (Dharmacon, Inc., Lafayette, Colo.), which has been shown previously to be a potent TLR7 and TLR8 agonist. This RNA molecule was diluted to 2.5 μM in serum-free RPMI, and mouse anti-human single stranded DNA monoclonal antibody (MAB3034, Millipore, Inc., Billerica, Mass.), which also cross-reacts with RNA, was added at a 1:25 dilution or at 1 ug/ml. The resulting “RNA-Ig” stimulus was incubated at room temperature for 15-30 minutes before adding to cells. PBMC were incubated with the various TLR agonists for 20 hours at 37° C., 5% CO2. Cell culture supernatants were collected, and levels of various human cytokines were assessed as indicated by standard ELISA procedure according to the manufacturer's recommended protocol (BD Biosciences, Inc., San Diego, Calif.). In a subsequent assay (Table 6) the ability of ER-899742 to block stimulation of normal PBMC by various TLR7/8 ligands, but not DNA-mediated activation of TLR9, was examined. In this assay cells were plated at 1×10^5 cells/well in 100 ul in 96-well plates.

In assay [2] the test system is T2, TLR7/8.
T2 construct: other: human PBMC; ligand SL4-Ig; individual donors 1-6; average of donors; ligand RNA40-DOTAP; individual donors; ligand R848; ligand R848
Described as above. Format: cell-based. The protocol:
as §1, §2

Setting [3] is: read-out: IC50 IFN-α Ave., ligand R848, average of donors.
The mark [4] stands for this setting: read-out: IC50 IFN-α Ave., ligand RNA40-DOTAP, average of donors.
Setting [5] is: read-out: IC50 IFN-α Ave., ligand SL4-Ig, average of donors.
[6] abbreviates: read-out: IC50 IL-6 Ave., ligand R848, average of donors.
Setting [7] is: read-out: IC50 IL-6 Ave., ligand RNA40-DOTAP, average of donors.
[8] abbreviates: read-out: IC50 IL-6 Ave., ligand SL4-Ig, average of donors.

Turning to `C[C@@H]1CN(c2ccc(C#N)c3ncccc23)C[C@H](C(=O)N[C@H]2CNC[C@H]2F)O1.Cl` [ER-899742, (2R,6R)-4-(8-cyanoquinolin-5-yl)-N-[(3S,4R)-4-fluoropyrrolidin-3-yl]-6-methylmorpholine-2-carboxamide hydrochloride], the IC50 in the assay with TLR7/8 [1] (setting [3]) is 11 nM; in the assay with TLR7/8 [1] (setting [4]) it was 13.9 nM; with TLR7/8 [1] (setting [5]), 1.4 nM; in the assay on TLR7/8 [1] (read-out: IC50 IFN-α, ligand R848, individual donors, hydrochloride), 12 nM and 11 nM and 10 nM; with TLR7/8 [1] (read-out: IC50 IFN-α, ligand RNA40-DOTAP, individual donors, hydrochloride), 9.6 nM and 18 nM and 11 nM and 17 nM; with TLR7/8 [1] (read-out: IC50 IFN-α, ligand SL4-Ig, individual donors 1-6, hydrochloride) it was 2.2 nM and 0.5 nM. In addition, the half-maximal inhibitory concentration (IC50) with TLR7/8 [2] (read-out: IC50 IL-6, ligand R848, individual donors, hydrochloride) was 6.5 nM and 7 nM and 4.9 nM and 5.5 nM and 8.1 nM and 3.4 nM; in the assay with TLR7/8 [2] (read-out: IC50 IL-6, ligand RNA40-DOTAP, individual donors, hydrochloride), 23 nM and 54 nM and 33 nM and 29 nM and 14 nM and 35 nM; in the assay on TLR7/8 [2] (read-out: IC50 IL-6, ligand SL4-Ig, individual donors 1-6, hydrochloride), 3.2 nM and 4.3 nM and 2.5 nM and 3.3 nM and 7.7 nM; in the assay on TLR7/8 [2] (setting [6]), 5.9 nM; in the assay with TLR7/8 [2] (setting [7]), 31.3 nM; in the assay on TLR7/8 [2] (setting [8]), 4.2 nM.
As for `CCN(CCO)CCCC(C)Nc1ccnc2cc(Cl)ccc12` (stereo not drawn) [HCQ, hydroxychloroquine, reference compound], the IC50 with TLR7/8 [1] (setting [3]) was 1950 nM; in the assay on TLR7/8 [1] (setting [4]), 598 nM; in the assay on TLR7/8 [1] (setting [5]) it was 392 nM; in the assay with TLR7/8 [1] (read-out: IC50 IFN-α, ligand R848, individual donors) it was 1250 nM and 2570 nM and 2030 nM; in the assay on TLR7/8 [1] (read-out: IC50 IFN-α, ligand RNA40-DOTAP, individual donors), 490 nM and 410 nM and 990 nM and 502 nM; with TLR7/8 [1] (read-out: IC50 IFN-α, ligand SL4-Ig, individual donors 1-6), 459 nM and 324 nM. For the same compound, the IC50 in the assay on TLR7/8 [2] (read-out: IC50 IL-6, ligand R848, individual donors) was above 10000 nM; with TLR7/8 [2] (read-out: IC50 IL-6, ligand RNA40-DOTAP, individual donors) it was 10000 nM and 10800 nM and > 10000 nM and 15500 nM and 18000 nM and 6100 nM; in the assay on TLR7/8 [2] (read-out: IC50 IL-6, ligand SL4-Ig, individual donors 1-6) it was 5200 nM and 3700 nM and 3200 nM and 3600 nM and 4300 nM and 4600 nM; in the assay with TLR7/8 [2] (setting [6]) it was above 10000 nM; in the assay with TLR7/8 [2] (setting [7]), 12100 nM; with TLR7/8 [2] (setting [8]), 4100 nM.
